# Results as given in patent publication US20240238228A1, “COMPOSITIONS AND METHODS FOR TREATING ALLERGIES AND INFLAMMATORY CONDITIONS” (UNIVERSITY OF PITTSBURGH-OF THE COMMONWEALTH SYSTEM OF …, priority 2021, published 2024).
# No end group written: not given here.
# B1: calpain: purified human calpain I (Athens Research and Technology), IL-10 degrading cysteine protease (protein)
# chain: SEEIITPVYCTGVSAQVQKQRARELGLGRHENAIKYLGQDYEQLRVRCLQSGTLFRDEAFPPVPQSLGYKDLGPNSSKTYGIKWKRPTELLSNPQFIVDGATRTDICQGALGDCWLLAAIASLTLNDTLLHRVVPHGQSFQNGYAGIFHFQLWQFGEWVDVVVDDLLPIKDGKLVFVHSAEGNEFWSALLEKAYAKVNGSYEALSGGSTSEGFEDFTGGVTEWYELRKAPSDLYQIILKALERGSLLGCSIDISSVLDMEAITFKKLVKGHAYSVTGAKQVNYRGQVVSLIRMRNPWGEVEWTGAWSDSSSEWNNVDPYERDQLRVKMEDGEFWMSFRDFMREFTRLEICNLTPDALKSRTIRKWNTTLYEGTWRRGSTAGGCRNYPATFWVNPQFKIRLDETDDPDDYGDRESGCSFVLALMQKHRRRERRFGRDMETIGFAVYEVPPELVGQPAVHLKRDFFLANASRARSEQFINLREVSTRFRLPPGEYVVVPSTFEPNKEGDFVLRFFSEKSAGTVELDDQIQANLPDEQVLSEEEIDENFKALFRQLAGEDMEISVKELRTILNRIISKHKDLRTKGFSLESCRSMVNLMDRDGNGKLGLVEFNILWNRIRNYLSIFRKFDLDKSGSMSAYEMRMAIESAGFKLNKKLYELIITRYSEPDLAVDFDNFVCCLVRLETMFRFFKTLDTDLDGVVTFDLFKWLQLTMFA
# B2: recombinant IL-10: recombinant murine IL-10 (Peprotech) (protein)
# chain: SRGQYSREDNNCTHFPVGQSHMLLELRTAFSQVKTFFQTKDQLDNILLTDSLMQDFKGYLGCQALSEMIQFYLVEVMPQAEKHGPEIKEHLNSLGEKLKTLRMRLRRCHRFLPCENKSKAVEQVKSDFNKLQDQGVYKAMNEFDIFINCIEAYMMIKMKS
# What was measured:
# peanut allergy = experiment: Peanut allergy desensitization by microneedle arrays; assay type: in vivo, mouse; conditions: mouse, in vivo
# IL-33 = conditions: mouse, in vivo
# [1] = molecular target: calpain released into cell-free supernatants by IgE-activated murine BMMCs (murine) (UniProt O35350); experiment: cell-based or functional assay
# MCs = conditions: previous studies; cited from earlier work
# calpain = experiment: Calpain inhibition in cell-free BMMC supernatants pulsed with inhibitor; assay type: biochemical, murine; conditions: Ac-calpastatin 20 μg/mL, 30 min; mean±SEM from n=3
# Description: (§1) Calpain activity was detected from cell-free supernatants using the Calpain-Glo Protease Assay (Promega). Supernatants were incubated with substrate for 10 min prior to luminescent detection. In some experiments, glyburide or vehicle (0.1% DMSO) were added to cells 10 min prior to Ag. ELISA kits from eBioscience (IL-13), BioLegend, (TNF and IL-10) or RayBiotech (NKA) and used in accord with the manufacturer's recommendations.
# (§2) To detect early IL-10 release, 4×10^6 cells were incubated in serum free RPMI for a minimum of three hours prior to IgE loading and activation with DNP-HSA (100 ng/mL). Supernatants were collected and IL-10 was detected in accord with manufacturer's recommendations using 1.0% BSA to block and a top standard of 250 pg/mL. The lower limit of detection was 7.8 pg/mL. To evaluate the role of relationship between calpain and IL-10, cell-free supernatants were collected 10 min after activation and incubated with Ac-calpastatin (Ac-Cal; 20 μg/mL, Cayman) or vehicle control. Ac-Cal containing supernatants were further incubated for 30 min prior to IL-10 quantification by ELISA. To directly test IL-10 proteolysis, MCs were activated for 45 min, cell free supernatants were collected and pulsed with recombinant IL-10 (Biolegend, 250 pg/mL).
# IL-10 = IL-10 degradation assays on BMMC supernatants; assay type: cell-based, murine; conditions: supernatants collected 10 min after activation, pulsed with Ac-calpastatin 30 min
# Description: as §2, with “Ac-Cal containing supernatants were further incubated for 30 min prior to IL-10 quantification by ELISA.” left out
# recombinant murine IL-10 = experiment: Degradation of recombinant IL-10 by purified calpain (Western blot); assay type: biochemical; conditions: rIL-10 incubated with increasing concentrations of purified calpain, 60 min
# Description: The IL-10 degrading capacity of calpain, recombinant murine IL-10 (Peprotech) was incubated with human calpain I (Athens Research and Technology) for 60 min at 37° C., then denatured with Laemelli Buffer (BioRad) and resolved on 10% Tris-Glycine SDS-PAGE gels (BioRad). Proteins were transferred to […] PVDF membranes (BioRad), blocked for 1 h with Odyssey Blocking Buffer (LI-COR) and probed overnight with goat anti-mouse IL-10 antibody (RnD Systems). Ant-IL10 was detected with donkey anti-goat 800CW (LI-COR) and visualized on a LI-COR Imaging System. Densitometry was calculated using ImageStudioLite v5.2.5 (Licor). Values are presented as (rIL-10+calpain)/rIL-10 alone)*100.
# NKA = NKA in skin homogenates by ELISA; assay type: in vivo, mouse; conditions: IL-10 1.0 ng/ear; without PCA induction
# Description: as §1
# Mouse ears were measured with a micrometer then sensitized with IgE in filter-sterilized PBS (Sigma, clone SPE-7, 20 ng/50 μl/ear) or vehicle control. Twenty-four hours later mice were treated with NKA (10 μg/ear, intradermal) or vehicle (PBS) 3 h prior to Ag (DNP-HSA 100 μg, in 200 μl, intravenous in saline) administration. Data are presented as change in ear thickness between baseline and the indicated time. Where indicated, mice were treated with recombinant murine IL-10 (Peprotech, 1.0 ng/ear) at the time of IgE injection or treated with glyburide (2.5 mg/kg, i.p), 3 h prior to Ag administration.
# Cytokine expression in the skin was investigated 24 h after PCA induction. […] Protein concentrations were quantified using the BCA Protein Assay (Pierce). […] Densitometry values subtracting the median background from individual spot areas were calculated with ImageStudioLite v5.2.5. […]
molecule,measurement,setting,value
botulinum toxin A,allergy to peanut allergen after CPE challenge,peanut allergy,desensitizes
same,IL-33 expression in skin,IL-33,reduces IL-33 expression
Ac-calpastatin (Cayman) (from UniProt P20810 184-210) (peptide),calpain activity,[1],20.1%
NKA(4-10): a naturally truncated form of NKA [reference compound],effect on MCs (β-hexosaminidase or histamine release as readouts),MCs,no effect
Ac-calpastatin: a calpain inhibitor (Cayman) (Ac-DPMSSTYIEELGKREVTIPPKYRELLA; not fully specified (C-terminus)) [reference compound],inhibition of calpain activity,calpain,20.1±1.72%
same,IL-10 levels in supernatants from IgE-activated BMMCs,IL-10,partially restored
B1,amount of IL-10 detected by Western blot,recombinant murine IL-10,inversely proportional to calpain concentration
B2,steady state NKA in skin homogenates,NKA,significantly increased
